Here are results for twelve molecules from publication PMC4584354, “Synthesis and Antiplasmodial Evaluation of Analogues Based on the Tricyclic Core of Thiaplakortones A–D” (Marine Drugs, 2015).

The subject of data set [1] is neonatal foreskin fibroblast (NFF) cells. Briefly: Mammalian toxicity using human neonatal foreskin fibroblast cells. Particulars: for IC50: Homo sapiens, NFF, read-out: Mean IC50 ± SD, NFF; for SI (selectivity index = NFF cell-line IC50/P. falciparum IC50): range over 3D7 and Dd2 lines. In kind it is cell-based.
Data set [2] relates to P. falciparum multidrug-resistant line (Dd2). Briefly: P. falciparum growth inhibition assay ([3H]-hypoxanthine isotopic microtest), Dd2 line. The class given is cell-based. Particulars: Plasmodium falciparum, read-out: Mean IC50 ± SD, Dd2.
Method: (§1) P. falciparum growth inhibition assays were carried out using an isotopic microtest, as previously described [16]. […] The final concentration of DMSO vehicle was <0.5% in all assay wells (non-toxic). After 48 h cells were harvested onto 1450 MicroBeta filter mats (PerkinElmer, Waltham, Massachusetts, USA) and [^3H] incorporation determined using a 1450 MicroBeta liquid scintillation counter. Percentage inhibition of growth compared to matched DMSO controls was determined and IC50 values were calculated using linear interpolation of inhibition curves [17]. The mean IC50 or % inhibition (±SD) was calculated for three independent experiments, each carried out in triplicate.
The subject of data set [3] is P. falciparum chloroquine-sensitive line (3D7). The data set is described as follows: P. falciparum growth inhibition assay ([3H]-hypoxanthine isotopic microtest), 3D7 line. The class given is cell-based, Plasmodium falciparum. Particulars: for increase in 3D7 activity on exchanging saturated system (13, 14) for unsaturated motif: 15 vs 13, 16 vs 14; for IC50: Plasmodium falciparum, read-out: Mean IC50 ± SD, 3D7.
Method: as §1

Another data set concerns Plasmodium falciparum. Briefly: In vitro P. falciparum growth inhibition (line not given). In kind it is cell-based. Particulars: 3D7 and Dd2 lines.
For data set [4], the system named is P. falciparum multidrug-resistant line (Dd2). More on the design: method as in PMID 24032556. Particulars: read-out: in vitro IC50, Dd2; cited from earlier work.
Data set [5] concerns P. falciparum chloroquine-sensitive line (3D7). Also noted: method as in PMID 24032556. Particulars: chloroquine-sensitive (3D7) P. falciparum line; read-out: in vitro IC50, 3D7; cited from earlier work.
Another data set relates to blood stage P. berghei. More on the design: method as in PMID 25490858. Particulars: mice, subcutaneous 32 mg/kg twice daily for 4 d; cited from earlier work.
Details of data set [6]: method as in PMID 25490858. Particulars: cited from earlier work.
On the set-up of data set [7]: method as in PMID 25490858. Particulars: cited from earlier work. This is another data set of the same source.
On the set-up of data set [8]: method as in PMID 25490858. Particulars: administered subcutaneously to mice; remained above this level for 8 h; cited from earlier work.
On the set-up of data set [9]: method as in PMID 25490858. Particulars: subcutaneous 32 mg/kg twice daily for 4 d; cited from earlier work.
[10] abbreviates: neonatal foreskin fibroblast cells.
Where [11] appears, read: P. falciparum multidrug-resistant line Dd2, 48 h, three independent experiments in triplicate.
The mark [12] stands for this setting: P. falciparum chloroquine-sensitive line 3D7, 48 h, three independent experiments in triplicate.

Where two headings read alike, the source gives them in different places.

Method for Plasmodium falciparum: as §1

Consider `O=C1C2=C(NC=CS2(=O)=O)C(=O)c2[nH]ccc21` [Compound 16], for which the IC50 – broadly, the concentration that gives 50% inhibition – in data set [1] (setting [10]) worked out at 4.6 ± 0.8 µM; in data set [2] (setting [11]), 0.127 ± 0.0086 µM; in [3] (setting [12]), 0.252 ± 0.035 µM. In [1], the “SI (selectivity index = NFF cell-line IC50/P. falciparum IC50)” value is given as 18.2–36.2. The “increase in 3D7 activity on exchanging saturated system (13, 14) for unsaturated motif” value in data set [3] was determined as 27.3 fold.
Consider `O=C1C2=C(NCCS2(=O)=O)C(=O)c2[nH]ccc21` [Compound 14], for which the IC50 in [1] (setting [10]) is 69.6 µM; in data set [2] (setting [11]), 3.7 ± 0.5 µM; in data set [3] (setting [12]), 6.9 ± 0.7 µM. For the same molecule, in data set [1], the “SI (selectivity index = NFF cell-line IC50/P. falciparum IC50)” value is 10.1–18.8.
With `O=C1C2=C(C(=O)c3[nH]ccc31)S(=O)(=O)CCN2` [Compound 13], the IC50 in [1] (setting [10]) worked out at 39 µM; in [2] (setting [11]), 3.8 ± 0.4 µM; in data set [3] (setting [12]), 7.5 ± 0.9 µM. Besides, the “SI (selectivity index = NFF cell-line IC50/P. falciparum IC50)” value in [1] was 5.2–10.3.
With `Cc1ccc(S(=O)(=O)n2ccc3c2C(=O)C2=C(NCCS2(=O)=O)C3=O)cc1` [Compound 11], the IC50 was 1.4 ± 0.7 µM in [1] (setting [10]), 0.509 ± 0.309 µM in data set [2] (setting [11]) and 0.546 ± 0.119 µM in data set [3] (setting [12]).
Turning to `O=C1C=CC(=O)c2[nH]ccc21` [Compound 17, 1H-indole-4,7-dione], the IC50 amounted to 4.7 ± 0.1 µM in [1] (setting [10]), 11.5 µM in [2] (setting [11]) and 13.5 µM in [3] (setting [12]). Further, the “SI (selectivity index = NFF cell-line IC50/P. falciparum IC50)” value in [1] was 0.3–0.4. Besides, the “antiplasmodial activity” value in the data set on Plasmodium falciparum was “essentially inactive”.
Turning to `O=C1C2=C(C(=O)c3[nH]ccc31)S(=O)(=O)C=CN2` [Compound 15], the half-inhibitory concentration (IC50) in data set [1] (setting [10]) worked out at 2.8 ± 0.4 µM; in [2] (setting [11]) it was 0.129 ± 0.0039 µM; in [3] (setting [12]) it was 0.313 ± 0.084 µM. The “SI (selectivity index = NFF cell-line IC50/P. falciparum IC50)” value in [1] was 8.9–21.7. The “increase in 3D7 activity on exchanging saturated system (13, 14) for unsaturated motif” value in data set [3] is on record as 23.9 fold.
`NCCc1c[nH]c2c1C(=O)C1=C(NC=CS1(=O)=O)C2=O` [Thiaplakortone A, thiaplakortone A]: the IC50 in data set [4] was 0.0066 µM; in data set [5], 0.051 µM.
`Cc1ccc(S(=O)(=O)n2ccc3c2C(=O)C=CC3=O)cc1` [Compound 10, 1-tosyl-1H-indole-4,7-dione]: the half-inhibitory concentration (IC50) in data set [1] (setting [10]) was 7.6 ± 1.2 µM; in data set [2] (setting [11]), 11.1 µM; in data set [3] (setting [12]), 18.2 µM. In addition, in [1], the “SI (selectivity index = NFF cell-line IC50/P. falciparum IC50)” value is 0.4–0.7. The “antiplasmodial activity” value in the data set on Plasmodium falciparum was “essentially inactive”.
Consider `CC(=O)NCCc1c[nH]c2c1C(=O)C1=C(NC=CS1(=O)=O)C2=O` [Compound 8], for which, in the data set with blood stage P. berghei, the “suppression of blood stage P. berghei parasitemia relative to controls” value is 52%. The solubility result in data set [6] was “good”. The metabolic stability entry in data set [7] is recorded as “good”. For the same molecule, in [8], the plasma concentration was > 200 nM. Besides, the tolerability in mice result in data set [9] was “well tolerated”.
Take `CCN(CC)CCCC(C)Nc1ccnc2cc(Cl)ccc12` (stereo not drawn) [CQ, chloroquine, reference compound]: the IC50 in data set [1] is 36.5 µM; in [2] (DD2, 48 h), 0.045 ± 0.01 µM; in [3] (3D7, 48 h), 0.0078 ± 0.0027 µM. The “SI (selectivity index = NFF cell-line IC50/P. falciparum IC50)” value in [1] is 811.1–4679.5.
As to `Cc1ccc(S(=O)(=O)n2ccc3c2C(=O)C2=C(C3=O)S(=O)(=O)CCN2)cc1` [Compound 12], the half-maximal inhibitory concentration (IC50) was 19 µM in data set [1] (setting [10]), 0.607 ± 0.158 µM in data set [2] (setting [11]) and 0.834 ± 0.089 µM in data set [3] (setting [12]). Further, in data set [1], the “SI (selectivity index = NFF cell-line IC50/P. falciparum IC50)” value was 22.8–31.3.
In the case of `CCCCNC(=O)NCCc1c[nH]c2c1C(=O)C1=C(NC=CS1(=O)=O)C2=O` [Compound 9], the “suppression of blood stage P. berghei parasitemia relative to controls” value in the data set on blood stage P. berghei is given as 26%. In data set [6], the solubility entry is recorded as “good”. Moreover, in data set [7], the metabolic stability entry was “good”. For the same molecule, the plasma concentration in data set [8] was > 200 nM. In addition, the tolerability in mice entry in data set [9] was “well tolerated”.
